Test [1] addresses T1, GLUT1 (Homo sapiens, UniProt P11166).
T1 construct: endogenous in cells; host or cells: erythrocyte (RBC-derived) ghosts
T1 sequence (P11166 1-492): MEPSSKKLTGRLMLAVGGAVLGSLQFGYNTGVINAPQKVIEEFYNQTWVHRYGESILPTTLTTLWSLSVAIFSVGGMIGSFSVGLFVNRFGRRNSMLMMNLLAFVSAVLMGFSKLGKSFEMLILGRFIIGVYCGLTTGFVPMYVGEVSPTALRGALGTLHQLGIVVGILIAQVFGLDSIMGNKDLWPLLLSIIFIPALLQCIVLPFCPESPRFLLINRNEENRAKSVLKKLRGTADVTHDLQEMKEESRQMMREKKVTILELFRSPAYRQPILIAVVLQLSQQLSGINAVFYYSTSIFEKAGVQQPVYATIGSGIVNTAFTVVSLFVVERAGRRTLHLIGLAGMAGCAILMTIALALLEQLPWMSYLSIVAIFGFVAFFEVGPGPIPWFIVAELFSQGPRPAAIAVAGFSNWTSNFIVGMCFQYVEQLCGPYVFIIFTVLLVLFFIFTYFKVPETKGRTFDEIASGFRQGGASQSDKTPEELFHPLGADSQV
Put plainly: 3-O-methyl-D-[3H] glucose uptake in human red blood cells. The format is cell-based. Conditions: RBCs; read-out: IC50 3H-labeled 3-O-methylglucose uptake. The text has this: (§1) FIGS. 3A-3D. Inhibition of Glucose Transport by A18 and E11. (a) Inhibition of 3-O-methyl-D-[3H] glucose uptake in human red blood cells by A18. (b) Inhibition of 3-O-methyl-D-[3H] glucose uptake in human red blood cells by E11. (c) Inhibition of 3-O-methyl-D-[3H] glucose uptake in erythrocyte ghosts by A18. (d) Inhibition of 3-O-methyl-D-[3H] glucose uptake in erythrocyte ghosts by E11.
(§2) A18 and E11 were previously shown to have a broad spectrum of anticancer activity. […] To test this hypothesis, red blood cells (RBCs) were applied as a cell model because RBCs express Glut1 as their sole glucose transporter and have been frequently used in studying glucose transport. […] To eliminate other possibilities, the glucose uptake assays were repeated in RBC-derived ghosts, in which all the intracellular proteins and enzymes were removed and only membrane-bound and membrane-associated proteins remained. […] (see FIGS. 2, 3 and 15-18)

For test [2], the system named is NFAT. Put plainly: NFAT reporter gene assay. Type of test: cell-based. The text has this: FIGS. 28A-28D. (a) A18 and E11 inhibit NFAT and A18, but not E11, stimulates SRE reporter gene signal. (b) E11 inhibits NFAT, NF-κB and IL2, but not MEF-2 or AP-1 pathways, in Jurkat T cells. (c) Glucose inhibitor stimulates SRE reporter gene signal.
Both A18 and E11 have shown immunosuppressive activity, blocking NFAT reporter gene activation and IL-2 production (see e.g., FIG. 28). As such, they can be used as immunosuppressive agents that have applications in treating organ transplantation rejection and all kinds of autoimmune diseases. […]
For orientation: In a reporter assay the amount or activity of a reporter protein is the signal.

In test [3] the target is T1, GLUT1. Put plainly: 3-O-methyl-D-[3H] glucose uptake in RBC-derived ghosts. Type of test: cell-based.
Description: as §1, §2

For test [4], the system named is T2, glucose transporters.
T2 construct: IC50 uptake of 3H-labeled 3-O-methylglucose; other: A549 cells; compared with 3-O-methylglucose uptake; other: A549 cells treated with drugs for 1 min; other: A549 cells, glucose uptake assay; other
Put plainly: 3-O-methyl-D-[3H] glucose uptake in A549 cells. The format is cell-based, human. Conditions: read-out: IC50 uptake of 3H-labeled 3-O-methylglucose. As for the experimental part: FIGS. 2A-2D. Inhibition of Glucose Transport by A18 and E11. (a) Inhibition of 3-O-methyl¬D-[3H] glucose uptake in A549 cells by A18. (b) Inhibition of 3-O-methyl-D-[3H] glucose uptake in A549 cells by E11. (c) Inhibition of 2-deoxy-D-[3H] glucose uptake in A549 […] cells by A18. (d) Inhibition of 2-deoxy-D-[3H] glucose uptake in A549 cells by E11.
Direct action on glucose transporters was measured by monitoring uptake of 3H-labeled 3-O-methylglucose, which is transported by glucose transporters but not metabolized further, allowing the assessment of initial rate of glucose uptake. […] Initial uptake can also be assessed by measuring the uptake of 3H-labeled 2-deoxy-D-glucose, which gets into the cell through glucose transporters and is phosphorylated by hexokinase but cannot be metabolized further due to the lack of oxygen at the second position.

Test [5] concerns ERK, AKT or JNK. Put plainly: Western blot, phosphorylation of ERK, AKT or JNK. Type of test: cell-based. The text has this: Whether A18 and E11 treatment affect key cell growth signaling proteins was examined next. […] But it has no effects on the phosphorylation of ERK, AKT or JNK (FIG. 7). As previously reported, AMPK is likely to act as the key link between the ATP reduction and the subsequent cancer cell inhibition. (FIGS. 7 and 23-25). Based on the data reported here, the working model for A18 and E11 was proposed as outlined in FIG. 8. […] These led to upregulation of phosphorylation of AMPK and downregulation of phosphorylation of S6K. […] (FIG. 8)

Test [6] deals with colon cancer RKO. Put plainly: alamar blue assay, RKO. Type of test: cell-based, human. The text has this:
(§3) Dose-dependent inhibition of cell proliferation by A18 and E11 was next evaluated in several other human cancer cell lines, including breast cancer HCC1954, pancreatic cancer PANC10.05, leukemia Jurkat T and colon cancer RKO (FIGS. 1b and 1c). […] (FIGS. 1 and 9; Table 3)
On the technique in general: The colour change of resazurin is a common sign of viable cells or microbes.

The subject of test [7] is HEK 293T FLAG-Glut3. Put plainly: alamar blue assay, HEK 293T Glut3 overexpression cells. Type of test: cell-based. The source says: FIGS. 20A-20C. E11 is a specific inhibitor of Glut1. (a) Glut1 and Glut3 protein levels of wild type, Glut1 and Glut3 overexpression cells analyzed by western blotting. (b)(c) Inhibition of cell proliferation in HEK293T, Glut1 and Glut3 overexpression cells by A18 and E11.
Up to now, at least 14 different isoforms of GLUTs have been identified in human cells. It was then asked whether A18 and E11 are specific inhibitors of GLUT1. To answer this question, colon cancer DLD-1 wild type and GLUT1 gene knock out cell lines were chosen as a cell model (FIG. 4a). […] GLUTs that are most relevant to cancer are Glut1 and Glut3. To obtain additional evidence, Glut1 and Glut3 in HEK 293T cells were overexpressed and an alamar blue cell viability assay was performed again. […] (see FIGS. 4, 19, 20, 26; Table 4).

Test [8] relates to A549 lung cancer cells. Put plainly: alamar blue cell viability assay, A549. The format is cell-based, human.
Description: FIG. 9. Heat map of the screening results. Scale: 0 (red), complete inhibition; 1 (green), no inhibition. Screening of the rapafucin library for toxicity hits against A549 lung cancer cells using alamar blue assay.
A 45,000 compound and 3000 pool rapafucin library were screened using the alamar blue cell viability assay with the human non-small cell lung cancer (NSCLC) cell line A549. […] Several potent rapafucin hits were discovered to inhibit cell proliferation of A549. […] Each was resynthesized on preparative scale, purified by silica gel chromatography, followed by HPLC purification, and subjected to a series of detailed structure characterization (schemes I and II; FIGS. 10-14).
as §3

Entries after “also recorded” stand apart in the source; their conditions may differ. Read-outs that look alike come from different tables or passages of the source.

Take `CC[C@@H](C)[C@H]1C(=O)NCC(=O)N(C)CC/C=C/C(=O)OCC(C)(C)C(=O)C(=O)N2CCCC[C@H]2C(=O)O[C@H](CCc2ccc(OC)c(OC)c2)c2cccc(c2)NC(=O)CCC(=O)N(C)[C@@H](CC(C)C)C(=O)N[C@H](Cc2ccccc2)C(=O)N1C` [A18]: the IC50 (commonly the concentration that gives 50% inhibition) was determined as 34.2 nM in test [1]; 49.5 nM in test [3]; 18.7 nM in test [4]; 114 nM in test [6] (Homo sapiens); 2350 nM in test [7] (Homo sapiens, HEK 293T FLAG-Glut3); 189 nM in test [8] (Homo sapiens). Also, the “NFAT reporter gene signal” value in test [2] was “inhibit; also recorded: blocking”. Also, in test [5], the “phosphorylation of ERK, AKT or JNK” value was “no effects”.

For the molecule Gly-^MSerBu-Nal-^MAla [E11], the IC50 stood at 74.2 nM in test [1], 38.2 nM in test [4], 714 nM in test [6] and 367 nM in test [8]. Moreover, the “NFAT reporter gene signal” value in test [2] was “inhibit; also recorded: blocking”. For the same molecule, the IC50 glucose uptake entry in test [3] is given as “totally lost its inhibitory activity”. Moreover, the “phosphorylation of ERK, AKT or JNK” value in test [5] is “no effects”. For the same molecule, in test [7] (GLUT3 overexpression HEK 293T cells), the “inhibition in alamar blue cell viability assay” value is “didn't show any inhibition”. Also, the “IC50 alamar blue assay” value in test [7] (HEK 293T FLAG-Glut3) is “No activity”.

The record behind these values is patent US11708391B2, “Rapaglutins, novel inhibitors of GLUT and use thereof” (The Johns Hopkins University, priority 2016, dated 2023).
